Measured values reported in patent publication US5840684A, “Glycopeptide antibiotic derivatives” (Eli Lilly and Company, priority 1995, dated 1998).
Values after ≈ are worked out from the molar mass of the structure shown.

Assays:
[1] = tested on: Staphylococcus aureus S13E; type: cell-based
Protocol: (§1) The MIC's were determined using a standard broth micro-dilution assay.

[2] = tested on: Entercoccus faecium 180-1; assay: broth micro-dilution MIC; type: cell-based
Protocol: as §1

Entercoccus faecium 276 = assay: broth micro-dilution MIC; type: cell-based
Protocol: as §1

[3] = tested on: Staphylococcus aureus 446; assay: broth micro-dilution MIC; type: cell-based
Protocol: as §1

[4] = tested on: Staphylococcus aureus 447; assay: broth micro-dilution MIC; type: cell-based
Protocol: as §1

[5] = tested on: Staphylococcus aureus 489; assay: broth micro-dilution MIC; type: cell-based
Protocol: as §1

[6] = tested on: Staphylococcus aureus SA1199A; assay: broth micro-dilution MIC; type: cell-based
Protocol: as §1

[7] = tested on: Staphylococcus aureus SA1199; assay: broth micro-dilution MIC; type: cell-based
Protocol: as §1

[8] = tested on: Staphylococcus aureus X400; assay: broth micro-dilution MIC; type: cell-based
Protocol: as §1

[9] = tested on: Staphylococcus aureus X778; assay: broth micro-dilution MIC; type: cell-based
Protocol: as §1

[10] = tested on: Haemophilus influenzae RD; assay: broth micro-dilution MIC; type: cell-based; conditions: Haemophilus influenzae RD
Protocol: (§2) The formula I compounds have in vitro and in vivo activity against Gram-positive pathogenic bacteria. The MIC's were determined using a standard broth micro-dilution assay.

[11] = tested on: Staphylococcus epidermidis 270; assay: broth micro-dilution MIC; type: cell-based
Protocol: as §2

[12] = tested on: Staphylococcus haemolyticus 105; assay: broth micro-dilution MIC; type: cell-based
Protocol: as §2

[13] = tested on: Staphylococcus haemolyticus 415; assay: broth micro-dilution MIC; type: cell-based
Protocol: as §2

Stapylococcus aureus = assay: mouse protection, experimentally-induced infection; type: in vivo; conditions: mice infected with Stapylococcus aureus, two doses
Streptococcus pyogenes = assay: mouse protection, experimentally-induced infection; type: in vivo; conditions: mice infected with Streptococcus pyogenes, two doses
Streptococcus pneumoniae = assay: mouse protection, experimentally-induced infection; type: in vivo; conditions: mice infected with Streptococcus pneumoniae, two doses
[14] = tested on: vancomycin-resistant enterococci; assay: broth micro-dilution, mean geometric MIC; type: cell-based, Enterococcus faecium and Enterococcus faecalis; conditions: enterococci, 24-hour incubation
[15] = tested on: vancomycin-susceptible enterococci; assay: broth micro-dilution, mean geometric MIC; type: cell-based, Enterococcus faecium and Enterococcus faecalis; conditions: enterococci, 24-hour incubation
Pediococcus acidilacti = assay: agar dilution MIC, lactic acid bacteria; type: cell-based; conditions: Pediococcus acidilacti (mean of 10), brain-heart infusion agar
Pediococcus pentosaceus = assay: agar dilution MIC, lactic acid bacteria; type: cell-based; conditions: Pediococcus pentosaceus (mean of 2), brain-heart infusion agar
Leuconostoc lactis = assay: agar dilution MIC, lactic acid bacteria; type: cell-based; conditions: Leuconostoc lactis (mean of 2), brain-heart infusion agar
[16] = tested on: Leuconostoc mesenteroides; assay: agar dilution MIC, lactic acid bacteria; type: cell-based; conditions: Leuconostoc mesenteroides (mean of 4), brain-heart infusion agar
Leuconostoc citreum = assay: agar dilution MIC, lactic acid bacteria; type: cell-based; conditions: brain-heart infusion agar
Lactobacillus confusus = assay: agar dilution MIC, lactic acid bacteria; type: cell-based; conditions: Lactobacillus confusus, brain-heart infusion agar
[17] = tested on: Leuconostoc pseudomesenteroides; assay: agar dilution MIC, lactic acid bacteria; type: cell-based; conditions: brain-heart infusion agar
[18] = tested on: Staphylococcus aureus SA1199B; type: cell-based
Protocol: as §1

[19] = tested on: Streptococcus pyogenes C203; assay: broth micro-dilution MIC; type: cell-based
Protocol: as §1

Entercoccus faecium 180 = assay: broth micro-dilution MIC; type: cell-based; conditions: Entercoccus faecium 180
Protocol: as §2

Entercoccus faecium 2041 = assay: broth micro-dilution MIC; type: cell-based; conditions: Entercoccus faecium 2041
Protocol: as §2

[20] = tested on: Enterococcus gallinarum 245; assay: broth micro-dilution MIC; type: cell-based; conditions: Enterococcus gallinarum 245
Protocol: as §2

Escherichia coli EC14 = assay: broth micro-dilution MIC; type: cell-based
Protocol: as §2

[21] = tested on: Streptococcus pneumoniae P1; assay: broth micro-dilution MIC; type: cell-based
Protocol: as §2

Row | SMILES | MIC [1] | MIC [2] | MIC (Entercoccus faecium 276) | MIC [6] | MIC [7] | MIC [8] | MIC [9] | MIC [12] | ED50 (Stapylococcus aureus) | ED50 (Streptococcus pyogenes) | ED50 (Streptococcus pneumoniae) | mean geometric MIC, Vancomycin Resistant Strains [14] | mean geometric MIC, Vancomycin Sensitive Strains [15] | MIC (Pediococcus acidilacti) | MIC (Pediococcus pentosaceus) | MIC (Leuconostoc lactis) | MIC [16] | MIC (Leuconostoc citreum) | MIC (Lactobacillus confusus) | MIC [17] | also measured
1 | CNC(CC(C)C)C(=O)NC1C(=O)NC(CC(N)=O)C(=O)NC2C(=O)NC3C(=O)NC(C(=O)NC(C(=O)O)c4cc(O)cc(O)c4-c4cc3ccc4O)C(OC3CC(C)(N)C(O)C(C)O3)c3ccc(c(Cl)c3)Oc3cc2cc(c3OC2OC(CO)C(O)C(O)C2OC2CC(C)(NCc3ccc4c(c3)Cc3ccccc3-4)C(O)C(C)O2)Oc2ccc(cc2Cl)C1O (stereo not shown) [Compound 32] | 1 µg/mL (≈ 0.565 µM) | ≤ 0.06 µg/mL | 0.125 µg/mL (≈ 0.0706 µM) | ≤ 0.06 µg/mL | 1 µg/mL (≈ 0.565 µM) | 0.5 µg/mL (≈ 0.282 µM) | 0.5 µg/mL (≈ 0.282 µM) | 4 µg/mL (≈ 2.26 µM) | 0.055 mg/kg/2 | 0.034 mg/kg/2 | 0.039 mg/kg/2 | 0.50 µg/mL | 0.089 µg/mL | 12.1 µg/mL (≈ 6.83 µM) | 16 µg/mL (≈ 9.04 µM) | 16 µg/mL (≈ 9.04 µM) | 16 µg/mL (≈ 9.04 µM) | 64 µg/mL (≈ 36.1 µM) | 16 µg/mL (≈ 9.04 µM) | – | MIC [3]: 1 µg/mL (≈ 0.565 µM); MIC [4]: 0.5 µg/mL (≈ 0.282 µM); MIC [5]: 1 µg/mL (≈ 0.565 µM); MIC [10]: > 64 µg/mL; MIC [11]: 1 µg/mL (≈ 0.565 µM); MIC [13]: 4 µg/mL (≈ 2.26 µM)
2 | CNC(CC(C)C)C(=O)NC1C(=O)NC(CC(N)=O)C(=O)NC2C(=O)NC3C(=O)NC(C(=O)NC(C(=O)O)c4cc(O)cc(O)c4-c4cc3ccc4O)C(OC3CC(C)(N)C(O)C(C)O3)c3ccc(c(Cl)c3)Oc3cc2cc(c3OC2OC(CO)C(O)C(O)C2OC2CC(C)(NCc3ccc(SC)cc3)C(O)C(C)O2)Oc2ccc(cc2Cl)C1O (stereo not shown) [Compound 41] | – | – | – | – | – | – | – | – | – | 0.082 mg/kg/2 | 0.087 mg/kg/2 | 0.84 µg/mL | 0.21 µg/mL | 71 µg/mL (≈ 41.1 µM) | 91 µg/mL (≈ 52.6 µM) | 91 µg/mL (≈ 52.6 µM) | 91 µg/mL (≈ 52.6 µM) | > 128 µg/mL | 64 µg/mL (≈ 37 µM) | > 128 µg/mL | –
3 | CNC(CC(C)C)C(=O)NC1C(=O)NC(CC(N)=O)C(=O)NC2C(=O)NC3C(=O)NC(C(=O)NC(C(=O)O)c4cc(O)cc(O)c4-c4cc3ccc4O)C(OC3CC(C)(N)C(O)C(C)O3)c3ccc(c(Cl)c3)Oc3cc2cc(c3OC2OC(CO)C(O)C(O)C2OC2CC(C)(NCc3cccc(Oc4ccccc4)c3)C(O)C(C)O2)Oc2ccc(cc2Cl)C1O (stereo not shown) [Compound 49] | – | – | – | – | – | – | – | – | 0.053 mg/kg/2 | 0.045 mg/kg/2 | < 0.031 mg/kg/2 | 0.71 µg/mL | 0.083 µg/mL | 55 µg/mL (≈ 31 µM) | 64 µg/mL (≈ 36.1 µM) | 64 µg/mL (≈ 36.1 µM) | 64 µg/mL (≈ 36.1 µM) | 128 µg/mL (≈ 72.1 µM) | 64 µg/mL (≈ 36.1 µM) | 128 µg/mL (≈ 72.1 µM) | –
4 | CNC(CC(C)C)C(=O)NC1C(=O)NC(CC(N)=O)C(=O)NC2C(=O)NC3C(=O)NC(C(=O)NC(C(=O)O)c4cc(O)cc(O)c4-c4cc3ccc4O)C(OC3CC(C)(N)C(O)C(C)O3)c3ccc(c(Cl)c3)Oc3cc2cc(c3OC2OC(CO)C(O)C(O)C2OC2CC(C)(NCc3ccc(Cc4ccccc4)cc3)C(O)C(C)O2)Oc2ccc(cc2Cl)C1O (stereo not shown) [Compound 50] | – | – | – | – | – | – | – | – | 0.1 mg/kg/2 | 0.047 mg/kg/2 | 0.057 mg/kg/2 | 0.12 µg/mL | 0.054 µg/mL | 51 µg/mL (≈ 28.8 µM) | 64 µg/mL (≈ 36.1 µM) | 64 µg/mL (≈ 36.1 µM) | 64 µg/mL (≈ 36.1 µM) | 128 µg/mL (≈ 72.2 µM) | 64 µg/mL (≈ 36.1 µM) | 128 µg/mL (≈ 72.2 µM) | –
5 | CNC(CC(C)C)C(=O)NC1C(=O)NC(CC(N)=O)C(=O)NC2C(=O)NC3C(=O)NC(C(=O)NC(C(=O)O)c4cc(O)cc(O)c4-c4cc3ccc4O)C(OC3CC(C)(N)C(O)C(C)O3)c3ccc(c(Cl)c3)Oc3cc2cc(c3OC2OC(CO)C(O)C(O)C2OC2CC(C)(NCc3ccc(OC4CCCCC4)cc3)C(O)C(C)O2)Oc2ccc(cc2Cl)C1O (stereo not shown) [Compound 124] | ≤ 0.06 µg/mL | ≤ 0.06 µg/mL | ≤ 0.06 µg/mL | ≤ 0.06 µg/mL | 1 µg/mL (≈ 0.562 µM) | 1 µg/mL (≈ 0.562 µM) | 0.5 µg/mL (≈ 0.281 µM) | 2 µg/mL (≈ 1.12 µM) | – | 0.092 mg/kg/2 | 0.041 mg/kg/2 | 0.84 µg/mL | 0.047 µg/mL | 20 µg/mL (≈ 11.2 µM) | 16 µg/mL (≈ 8.99 µM) | 16 µg/mL (≈ 8.99 µM) | 16 µg/mL (≈ 8.99 µM) | 64 µg/mL (≈ 35.9 µM) | 16 µg/mL (≈ 8.99 µM) | 64 µg/mL (≈ 35.9 µM) | MIC [18]: ≤ 0.06 µg/mL; MIC [3]: 4 µg/mL (≈ 2.25 µM); MIC [19]: ≤ 0.06 µg/mL; MIC (Entercoccus faecium 180): ≤ 0.06 µg/mL; MIC (Entercoccus faecium 2041): ≤ 0.06 µg/mL; MIC [20]: 1 µg/mL (≈ 0.562 µM); MIC (Escherichia coli EC14): > 64 µg/mL; MIC [10]: 16 µg/mL (≈ 8.99 µM); MIC [13]: 1 µg/mL (≈ 0.562 µM); MIC [21]: ≤ 0.06 µg/mL
6 | CN[C@H](CC(C)C)C(=O)N[C@H]1C(=O)N[C@@H](CC(N)=O)C(=O)N[C@H]2C(=O)N[C@H]3C(=O)N[C@H](C(=O)N[C@H](C(=O)O)c4cc(O)cc(O)c4-c4cc3ccc4O)[C@H](O[C@H]3C[C@](C)(N)[C@@H](O)[C@H](C)O3)c3ccc(c(Cl)c3)Oc3cc2cc(c3O[C@@H]2O[C@H](CO)[C@@H](O)[C@H](O)[C@H]2O[C@H]2C[C@](C)(N)[C@@H](O)[C@H](C)O2)Oc2ccc(cc2Cl)[C@H]1O [Compound A82846B, A82846B, reference compound] | 0.125 µg/mL (≈ 0.0785 µM) | 0.125 µg/mL (≈ 0.0785 µM) | 0.125 µg/mL (≈ 0.0785 µM) | ≤ .06 µg/mL | 0.125 µg/mL (≈ 0.0785 µM) | 0.125 µg/mL (≈ 0.0785 µM) | 0.125 µg/mL (≈ 0.0785 µM) | 1 µg/mL (≈ 0.628 µM) | 0.25 mg/kg/2 | 0.12 mg/kg/2 | 0.18 mg/kg/2 | 29 µg/mL | 0.22 µg/mL | 141 µg/mL (≈ 88.5 µM) | > 256 µg/mL | – | > 256 µg/mL | > 256 µg/mL | > 256 µg/mL | > 256 µg/mL | MIC [18]: 0.125 µg/mL (≈ 0.0785 µM); MIC [5]: ≤ .06 µg/mL; MIC (Entercoccus faecium 180): 8 µg/mL (≈ 5.02 µM); MIC [13]: 4 µg/mL (≈ 2.51 µM)
